Here are results for 25 compounds from US20080146612A1, “Novel Biaromatic Compounds, Inhibitors of the P2X7-Receptor” (ASTRAZENECA AB, priority 2005, published 2008).

As usually defined, the melting point is the temperature of the solid-liquid transition. What is called IC50 is the point on the concentration scale where inhibition reaches its midpoint. High values mean a need for much substance, low ones inhibition by little substance.

Tested on in one data set: not given
Experiment: not given
Conditions: not given
On to `O=C(NC[C@@H]1CCCCC[C@@H]1O)c1cc(-c2ccccc2C(=O)O)ccc1Cl` (relative stereo) [Example 8, 4′-Chloro-3′-[[[[cis-2-hydroxycycloheptyl]methyl]amino]carbonyl]-[1,1′-biphenyl]-2-carboxylic acid], for which the melting point is 193 to 195 °C.

Regarding `O=C(NCCc1ccccc1Cl)c1cc(-c2ccccc2C(=O)O)ccc1Cl` [Example 1, 4′-Chloro-3′-[[[2-(2-chlorophenyl)ethyl]amino]carbonyl]-[1,1′-biphenyl]-2-carboxylic acid], the melting point is 136 to 140 °C (dec.).

For `O=C(NCC1CCCCC1)c1cc(-c2ccccc2C(=O)O)ccc1Cl` [Example 3, 4′-Chloro-3′-[[(cyclohexylmethyl)amino]carbonyl]-[1,1′-biphenyl]-2-carboxylic acid], the melting point was 212 to 214 °C. The same measure, in the same setting: as for `C[C@H](CNC(=O)c1cc(-c2ccccc2C(=O)O)ccc1Cl)c1ccccc1` [Example 4, 4′-Chloro-3′-[[[(2S)-2-phenylpropyl]amino]carbonyl]-[1,1′-biphenyl]-2-carboxylic acid], the figure is 160 to 162 °C; as for `CC1(C)[C@H]2CC[C@@H](CNC(=O)c3cc(-c4ccccc4C(=O)O)ccc3Cl)[C@@H]1C2` [Example 5, 4′-Chloro-3′-[[[[(1S,2R,5S)-6,6-dimethylbicyclo[3.1.1]hept-2-yl]methyl]amino]car-bonyl]-[1,1′-biphenyl]-2-carboxylic acid], 170 to 172 °C. Same read-out and setting: as for `O=C(NCC1CCCCCC1)c1cc(-c2ccccc2C(=O)O)ccc1Cl` [Example 6, 4′-Chloro-3′-[[(cycloheptylmethyl)amino]carbonyl]-[1,1′-biphenyl]-2-carboxylic acid], the figure is 201 to 203 °C; as for `O=C(NCC1(O)CCCCC1)c1cc(-c2ccccc2C(=O)O)ccc1Cl` [Example 7, 4′-Chloro-3′-[[[(1-hydroxycyclohexyl)methyl]amino]carbonyl]-[1,1′-biphenyl]-2-carboxylic acid], 202 to 204 °C. `O=C(NCCC1CCCCC1)c1cc(-c2ccccc2C(=O)O)ccc1Cl` [Example 9, 4′-Chloro-3′-[[(2-cyclohexylethyl)amino]carbonyl]-[1,1′-biphenyl]-2-carboxylic acid] came in with a melting point of 191 to 193 °C. Still for that read-out and setting: then `O=C(NCC1CCCCCC1)c1cc(-c2cccnc2C(=O)O)ccc1Cl` [Example 10, 3-[4-Chloro-3-[[(cycloheptylmethyl)amino]carbonyl]phenyl]-2-pyridinecarboxylic acid], with 166 to 168 °C; and `O=C(NCCC1CCCCC1)c1cc(-c2cccnc2C(=O)O)ccc1Cl` [Example 11, 3-[4-Chloro-3-[[(2-cyclohexylethyl)amino]carbonyl]phenyl]-2-pyridinecarboxylic acid], with 104 to 107 °C.

`C[C@@H](NC(=O)c1cc(-c2ccccc2C(=O)O)ccc1Cl)C1CCCCC1` [Example 12, 4′-Chloro-3′-[[[(1R)-1-cyclohexylethyl]amino]carbonyl]-[1,1′-biphenyl]-2-carboxylic acid] registered a melting point of 139 to 141 °C. Still for that read-out and setting: then `CC1(CNC(=O)c2cc(-c3ccccc3C(=O)O)ccc2Cl)CCCCCC1` [Example 13, 4′-Chloro-3′-[[[(1-methylcycloheptyl)methyl]amino]carbonyl]-[1,1′-biphenyl]-2-carboxylic acid], with 180 to 183 °C. In the case of `O=C(NCC1(CO)CCCCCC1)c1cc(-c2ccccc2C(=O)O)ccc1Cl` [Example 14, 4′-Chloro-3′-[[[[1-(hydroxymethyl)cycloheptyl]methyl]amino]carbonyl]-[1,1′-biphenyl]-2-carboxylic acid], the melting point was 175 to 177 °C. In turn, `Cc1ccc(-c2ccccc2C(=O)O)cc1C(=O)NCC1CCCCCC1` [Example 16, 3′-[[(Cycloheptylmethyl)amino]carbonyl]-4′-methyl-[1,1′-biphenyl]-2-carboxylic acid] showed a melting point of 188 to 189 °C. Still for that read-out and setting: then `Cc1ccc(-c2ccc(Cl)c(C(=O)O)n2)cc1C(=O)NCC1CCCCCC1` [Example 18, 3-Chloro-6-[3-[[(cycloheptylmethyl)amino]carbonyl]-4-methylphenyl]-2-pyridinecarboxylic acid], with 177 to 178 °C. On the same count and under the same terms, then `O=C(NCCC1CCCCC1)c1cc(-c2ncc(Cl)cc2C(=O)O)ccc1Cl` [Example 19, 5-Chloro-2-[4-chloro-3-[[(2-cyclohexylethyl)amino]carbonyl]phenyl]-3-pyridinecarboxylic acid], with 208 to 211 °C. On the same count and under the same terms, then `O=C(NCC1CCCCCC1)c1cc(-c2ncc(Cl)cc2C(=O)O)ccc1Cl` [Example 20, 5-Chloro-2-[4-chloro-3-[[(cycloheptylmethyl)amino]carbonyl]phenyl]-3-pyridinecarboxylic acid], with 176 to 179 °C; and `O=C(NCC1(O)CCCCCC1)c1cc(-c2ncc(Cl)cc2C(=O)O)ccc1Cl` [Example 21, 5-Chloro-2-[4-chloro-3-[[[(1-hydroxycycloheptyl)methyl]amino]carbonyl]phenyl]-3-pyridinecarboxylic acid], with 201 to 204 °C; and `O=C(NCCC1CCCCC1)c1cc(-c2ccc(Cl)c(C(=O)O)n2)ccc1Cl` [Example 22, 3-Chloro-6-[4-chloro-3-[[(2-cyclohexylethyl)amino]carbonyl]phenyl]-2-pyridinecarboxylic acid], with 189 to 190 °C. On to `O=C(NCC1CCCCCC1)c1cc(-c2ccc(Cl)c(C(=O)O)n2)ccc1Cl` [Example 23, 3-Chloro-6-[4-chloro-3-[[(cycloheptylmethyl)amino]carbonyl]phenyl]-2-pyridinecarboxylic acid], for which the melting point is 189 to 190 °C. On the same count and under the same terms, as for `O=C(NCC1(O)CCCCCC1)c1cc(-c2ccc(Cl)c(C(=O)O)n2)ccc1Cl` [Example 24, 3-Chloro-6-[4-chloro-3-[[[(1-hydroxycycloheptyl)methyl]amino]carbonyl]phenyl]-2-pyridinecarboxylic acid], the figure is 146 to 149 °C. Same read-out and setting: then `O=C(NCCC1CCCCC1)c1cc(-c2cccnc2N2CCC(C(=O)O)CC2)ccc1Cl` [Example 25, 1-[3-[4-Chloro-3-[[(2-cyclohexylethyl)amino]carbonyl]phenyl]-2-pyridinyl]-4-piperidinecarboxylic acid], with 116 to 120 °C.

`O=C(NCC1(O)CCCCCC1)c1cc(-c2cccnc2N2CCC(C(=O)O)CC2)ccc1Cl` [Example 27, 1-[3-[4-Chloro-3-[[[(1-hydroxycycloheptyl)methyl]amino]carbonyl]phenyl]-2-pyridinyl]-4-piperidinecarboxylic acid] yielded a melting point of 117 to 119 °C.

The target of another data set is T1, P2X7 receptor (Homo sapiens, UniProt Q99572).
T1 construct: 200 μl of a suspension of THP-1 cells; endogenous in cells; host or cells: THP-1 cells
T1 sequence (Q99572 1-595): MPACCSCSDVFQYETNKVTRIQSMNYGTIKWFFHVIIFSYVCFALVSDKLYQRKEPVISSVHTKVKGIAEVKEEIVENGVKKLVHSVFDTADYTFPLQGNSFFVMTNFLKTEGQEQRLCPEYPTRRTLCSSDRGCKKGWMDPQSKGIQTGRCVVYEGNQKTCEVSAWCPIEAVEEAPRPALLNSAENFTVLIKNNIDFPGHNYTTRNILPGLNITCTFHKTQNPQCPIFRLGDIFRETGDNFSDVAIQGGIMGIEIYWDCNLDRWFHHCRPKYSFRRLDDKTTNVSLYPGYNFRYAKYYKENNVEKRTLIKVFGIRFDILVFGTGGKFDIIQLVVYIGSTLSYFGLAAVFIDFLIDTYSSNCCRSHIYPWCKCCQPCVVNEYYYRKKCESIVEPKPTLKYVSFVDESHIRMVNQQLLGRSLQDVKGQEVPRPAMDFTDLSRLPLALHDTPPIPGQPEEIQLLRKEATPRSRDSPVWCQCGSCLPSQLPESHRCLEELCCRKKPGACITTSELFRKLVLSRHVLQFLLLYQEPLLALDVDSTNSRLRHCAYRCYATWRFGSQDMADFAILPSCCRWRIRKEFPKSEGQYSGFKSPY
Briefly: P2X7 receptor antagonist test: bbATP-induced ethidium bromide fluorescence in THP-1 cells. The data set is classed as cell-based. The following applies: negative logarithm of the concentration of test compound necessary to reduce the bbATP agonist activity by 50%, 10^-5M bbATP solution, 37° C. for one hour. The text has this: Certain compounds such as benzoylbenzoyl adenosine triphosphate (bbATP) are known to be agonists of the P2X7 receptor, effecting the formation of pores in the plasma membrane (Drug Development Research (1996), 37(3), p. 126). Consequently, when the receptor is activated using bbATP in the presence of ethidium bromide (a fluorescent DNA probe), an increase in the fluorescence of intracellular DNA-bound ethidium bromide is observed. The increase in fluorescence can be used as a measure of P2X7 receptor activation and therefore to quantif the effect of a compound on the P2X7 receptor.
In this manner, each of the title compounds of the Examples was tested for antagonist activity at the P2X7 receptor. Thus, the test was performed in 96-well flat bottomed microtitre plates, the wells being filled with 250 μl of test solution comprising 200 μl of a suspension of THP-1 cells (2.5×10^6 cells/ml) containing 10^−4M ethidium bromide, 25 μl of a high potassium buffer solution containing 10^−5M bbATP, and 25 μl of the high potassium buffer solution containing concentrations of test compound typically from 30 μM-0.001 μM. The plate was covered with a plastics sheet and incubated at 37° C. for one hour. The plate was then read in a Perkin-Elmer fluorescent plate reader, excitation 520 nm, emission 595 nm, slit widths: Ex 15 nm, Em 20 nm. […]
`O=C(NCC1(O)CCCCCC1)c1cc(-c2ccccc2C(=O)O)ccc1Cl` [Example 2, 4′-Chloro-3′-[[[(1-hydroxycycloheptyl)methyl]amino]carbonyl]-[1,1′-biphenyl]-2-carboxylic acid]: the IC50 was 63.1 nM. The same measure, in the same setting: as for `O=C(NCC1CCCCCC1)c1cc(-c2cccnc2N2CCC(C(=O)O)CC2)ccc1Cl` [Example 26, 1-[3-[4-Chloro-3-[[(cycloheptylmethyl)amino]carbonyl]phenyl]-2-pyridinyl]-4-piperidinecarboxylic acid], the figure is 100 nM.
